Earlier results on one compound are cited in patent publication US20250066696A1, “A STABLE BLEACH COMPOSITION” (Conopco Inc., d/b/a UNILEVER, priority 2021, published 2025).

As usually defined, the pKa is the negative logarithm of the acid dissociation constant. Regarding `CCCCC(C)CCC(=O)O` (stereo not shown) [4-methyl octanoic acid], the pKa is recorded as 5.23.
